“And” between values parts separate entries of the source, which are not always exact repeats. Equal values may be shown once.
What was measured:
[1] = biological target: Banner PD-seeded α-synuclein fibrils (Homo sapiens (Human), UniProt P37840); assay: Homologous competition radioligand binding assay, PD-seeded fibrils
Experimental: The equilibrium dissociation constant (Kd) for a series of compounds was determined using direct radioactive competitive binding assays (homologous or heterologous) with either recombinant α-synuclein fibrils or brain tissue homogenates from AD cases.
Recombinant protein was produced in E. coli using protocols based on previously described methods for α-synuclein [Giasson, B. I., et al., “Mutant and wild type human alpha-synucleins assemble into elongated filaments with distinct morphologies in vitro,” 1999, J Biol. Chem., 274:7619-7622; Huang, C., et al., “A new method for purification of recombinant human alpha-synuclein in Escherichia coli,” 2005, Protein Expr Purif, 42:173-177; Yu, L., et al, “Synthesis and in vitro evaluation of á-synuclein ligands,” 2012, Bioorg. Med. Chem., 20:4625-4634] and tau [Li, W., et al., “Characterization of two VQIXXK motifs for tau fibrillization in vitro,” 2006, Biochemistry, 45:15692-15701]. BL21(DE3)RIL E. coli were transformed with a pRK172 bacterial expression plasmid containing the human α-synuclein coding sequence. […]. Overnight cultures were centrifuged at 3,900×g for 10 min at 25° C. and the bacterial pellets were resuspended by gentle vortexing in 20 ml osmotic shock buffer (30 mM Tris-HCl, 2 mM EDTA, 40% Sucrose, pH 7.2) and then incubated at room temperature for 10 min. The cell suspension was then centrifuged at 8,000×g for 10 min at 25° C. and the pellet was resuspended in 22.5 ml cold H2O before adding 9.4 μl 2 M MgCl2 to each tube. The suspension was incubated on ice for 3 min prior to centrifugation at 20,000×g for 15 min at 4° C. After the supernatant was transferred to a fresh tube, streptomycin was added to a final concentration of 10 mg/ml and centrifuged at 20,000×g for 15 min at 4° C. The supernatant from this step was collected and dithiothreitol (DTT) and Tris-HCl pH 8.0 were added to final concentrations of 1 mM and 20 mM respectively, before boiling for 10 min to precipitate heat-sensitive proteins, which were pelleted at 20,000×g for 15 min at 4° C. The supernatant was collected and filtered through a 0.45 μm surfactant-free cellulose acetate filter (Corning) before loading onto a 1 ml DEAE Sepharose column equilibrated in 20 mM Tris-HCl pH 8.0, 1 mM EDTA, and 1 mM DTT. The DEAE column was washed with 20 mM Tris-HCl pH 8.0, 1 mM EDTA, 1 mM DTT before eluting α-synuclein protein in 20 mM Tris-HCl pH 8.0 buffer with 1 mM EDTA, 1 mM DTT and 0.3 M NaCl. Purified α-synuclein protein was dialyzed overnight in 10 mM Tris-HCl pH 7.6, 50 mM NaCl, 1 mM DTT.
Purified recombinant α-synuclein monomer (2 mg/ml) was incubated in 20 mM Tris-HCl, pH 8.0, 100 mM NaCl for 72 h at 37 C with shaking at 1000 rpm in an Eppendorf Thermomixer. […] The concentration of α-synuclein monomer in the supernatant was determined in a BCA protein assay according to the manufacturer's instructions, using a bovine serum albumin (BSA) standard curve. The measured decrease in α-synuclein monomer concentration was used to determine the concentration of fibrils in the 72 h fibril reaction mixture. […]
These direct binding assays used a fixed concentration of either fibrils or PD/AD tissue and the radioligand (e.g., [^18F]28) and varying concentration ranges of corresponding homologous non-radiolabeled standard reference compound. […] Reactions were incubated at 37° C. for 1 h before quantifying bound radioligand. […]

[2] = MicroPET studies in the brain of nonhuman primate; format: in vivo; settings: male adult cynomolgus macaca
Experimental: 9.93 mCi of [^18F]TZ61-44 was injected into a male adult cynomolgus macaca (9.25 Kg) 10.57 mCi of [^11C]TZ55-107 was injected into was injected into a male adult cynomolgus macaca (9.40 Kg) A simplified reference tissue model (SRTM) and spatially-constraint linear regression algorithm was used to generate R1 and DVR images (FIGS. 18A and 18B).
FIGS. 19A and 19B graphically depict the uptake of labeled TZ55-107 and TZ61-44 in the animals. [^18F]TZ61-44 had highest cortical uptake (SUV) of ˜3.48 at 4 min and the uptake ratio at 4 min versus 120 min reached ˜4.2 (FIG. 19A); [^11C]TZ55-107 had highest cortical uptake of ˜6.40 at 4 min, and the uptake ratio at 4 min versus 120 min reached ˜6.30 (FIG. 19B).

Experimental Log P = format: physicochemical

COc1ccc(Nc2ccc3cc(OCCF)ccc3n2)cn1 [TZ61-44]
Kd ([1]; 25 nM Banner PD-seeded fibrils): 5.4 nM and 9.7 nM and 12 nM and 25 nM and 26 nM
Kd ([1]; 75 nM Banner PD-seeded fibrils): 30 nM
highest cortical uptake (SUV) ([2]; brain cortex, at 4 min): ~3.48 SUV
uptake ratio at 4 min versus 120 min ([2]; brain cortex): ~4.2
blood brain barrier penetration [2]: able to penetrate the blood brain barrier
logP (Experimental Log P): 1.97 ± 0.4

From patent US12012394B2, “Alpha-synuclein ligands” (Washington University, priority 2018, dated 2024)
